Results from patent US10745396B2, “Pesticidally active polycyclic derivatives with sulfur containing substituents” (Syngenta Participations AG, priority 2015, dated 2020).

Key:
Type in all cases: in vivo
[1] = system: Euschistus heros (Neotropical Brown Stink Bug); test: Euschistus heros, soybean leaves on agar, N2 nymphs; conditions: 120 h, application rate of 200 ppm, 5 days after infestation, read-out: effect in at least one of the two categories (mortality or growth inhibition)
Experimental: Example B3: Euschistus heros (Neotropical Brown Stink Bug)
Soybean leaves on agar in 24-well microtiter plates were sprayed with aqueous test solutions prepared from 10′000 ppm DMSO stock solutions. After drying the leaves were infested with N2 nymphs. The samples were assessed for mortality and growth inhibition in comparison to untreated samples 5 days after infestation.

[2] = system: Plutella xylostella (Diamond Back Moth); test: Plutella xylostella, artificial diet, L2 larvae; conditions: 120 h, application rate of 200 ppm, 5 days after infestation, read-out: effect in at least one of the two categories (mortality or growth inhibition)
Experimental: Example B7: Plutella xylostella (Diamond Back Moth)
24-well microtiter plates with artificial diet were treated with aqueous test solutions prepared from 10′000 ppm DMSO stock solutions by pipetting. After drying, the plates were infested with L2 larvae (10 to 15 per well). The samples were assessed for mortality and growth inhibition in comparison to untreated samples 5 days after infestation.

[3] = system: Spodoptera littoralis (Egyptian Cotton Leaf Worm); test: Spodoptera littoralis, cotton leaf discs, L1 larvae; conditions: foliar, 72 h, application rate of 200 ppm, 3 days after infestation
Experimental: Example B8: Spodoptera littoralis (Egyptian Cotton Leaf Worm)
Cotton leaf discs were placed onto agar in 24-well microtiter plates and sprayed with aqueous test solutions prepared from 10′000 ppm DMSO stock solutions. After drying the leaf discs were infested with five L1 larvae. The samples were assessed for mortality, anti-feeding effect, and growth inhibition in comparison to untreated samples 3 days after infestation. Control of Spodoptera littoralis by a test sample is given when at least one of the categories mortality, anti-feedant effect, and growth inhibition is higher than the untreated sample.

[4] = system: Diabrotica balteata (Corn Root Worm); test: Diabrotica balteata, maize sprouts on agar, L2 larvae; conditions: 96 h, application rate of 200 ppm, 4 days after infestation, read-out: effect in at least one of the two categories (mortality or growth inhibition)
Experimental: Example B2: Diabrotica balteata (Corn Root Worm)
Maize sprouts placed onto an agar layer in 24-well microtiter plates were treated with aqueous test solutions prepared from 10′000 ppm DMSO stock solutions by spraying. After drying, the plates were infested with L2 larvae (6 to 10 per well). The samples were assessed for mortality and growth inhibition in comparison to untreated samples 4 days after infestation.

[5] = system: Spodoptera littoralis (Egyptian Cotton Leaf Worm); test: Spodoptera littoralis, uptake by lettuce roots from agar, eggs; conditions: 144 h, test rate of 12.5 ppm, 6 days after infestation, read-out: effect in at least one of the three categories (mortality, anti-feeding, or growth inhibition)
Text: Example B9: Spodoptera littoralis (Egyptian Cotton Leaf Worm)
Test compounds were applied by pipette from 10′000 ppm DMSO stock solutions into 24-well plates and mixed with agar. Lettuce seeds were placed onto the agar and the multi well plate was closed by another plate which contained also agar. After 7 days the compound was absorbed by the roots and the lettuce grew into the lid plate. The lettuce leaves were then cut off into the lid plate. Spodoptera eggs were pipetted through a plastic stencil onto a humid gel blotting paper and the lid plate was closed with it. The samples were assessed for mortality, anti-feedant effect and growth inhibition in comparison to untreated samples 6 days after infestation.

[6] = system: Myzus persicae (Green Peach Aphid); test: Myzus persicae feeding/contact activity, sunflower leaf discs; conditions: foliar, 144 h, application rate of 200 ppm, 6 days after infestation
Experimental: Example B5: Myzus persicae (Green Peach Aphid): Feeding/Contact Activity
Sunflower leaf discs were placed onto agar in a 24-well microtiter plate and sprayed with aqueous test solutions prepared from 10′000 ppm DMSO stock solutions. After drying, the leaf discs were infested with an aphid population of mixed ages. The samples were assessed for mortality 6 days after infestation.

CCn1c(C(F)(F)F)cc2nc(-c3nc(-c4ccc(C(F)(F)F)cc4)ccc3S(=O)(=O)CC)n(C)c2c1=O [Compound P2, 5-ethyl-2-[3-ethylsulfonyl-6-[4-(trifluoromethyl)phenyl]-2-pyridyl]-3-methyl-6-(trifluoromethyl)imidazo[4,5-c]pyridin-4-one]
≥ 80%: percent effect (mortality or growth inhibition) at 200 ppm [1] | percent effect (mortality or growth inhibition) at 200 ppm [2] | percent control (mortality, anti-feedant effect or growth inhibition) at 200 ppm [3] | percent effect (mortality or growth inhibition) at 200 ppm [4]

CCn1c(C(F)(F)F)cc2nc(-c3nc(-c4ccc(OC(F)(F)F)cc4)ccc3S(=O)(=O)CC)n(C)c2c1=O [Compound P22]
≥ 80%: percent effect (mortality or growth inhibition) at 200 ppm [1] | percent effect (mortality or growth inhibition) at 200 ppm [2] | percent control (mortality, anti-feedant effect or growth inhibition) at 200 ppm [3] | percent effect (mortality, anti-feeding or growth inhibition) at 12.5 ppm [5] | percent effect (mortality or growth inhibition) at 200 ppm [4]

CCS(=O)(=O)c1ccc(-c2cc(F)cc(F)c2)nc1-c1nc2cc(C(F)(F)F)n(C3CC3)c(=O)c2n1C [Compound P41]
≥ 80%: percent effect (mortality or growth inhibition) at 200 ppm [2] | percent control (mortality, anti-feedant effect or growth inhibition) at 200 ppm [3] | percent effect (mortality, anti-feeding or growth inhibition) at 12.5 ppm [5] | percent effect (mortality or growth inhibition) at 200 ppm [4]

CCn1c(C(F)(F)F)cc2nc(-c3nc(-c4cccnc4)ccc3S(=O)(=O)CC)n(C)c2c1=O [Compound P30]
≥ 80%: percent effect (mortality or growth inhibition) at 200 ppm [1] | percent effect (mortality or growth inhibition) at 200 ppm [2] | percent control (mortality, anti-feedant effect or growth inhibition) at 200 ppm [3] | percent effect (mortality or growth inhibition) at 200 ppm [4] | mortality at 200 ppm [6]

CCn1c(C(F)(F)F)cc2nc(-c3nc(-c4ccc(Cl)c(C)c4)ccc3S(=O)(=O)CC)n(C)c2c1=O [Compound P24]
≥ 80%: percent effect (mortality or growth inhibition) at 200 ppm [2] | percent control (mortality, anti-feedant effect or growth inhibition) at 200 ppm [3] | percent effect (mortality or growth inhibition) at 200 ppm [4]

CCn1c(C(F)(F)F)cc2nc(-c3nc(-c4cncs4)ccc3S(=O)(=O)CC)n(C)c2c1=O [Compound P31]
≥ 80%: percent effect (mortality or growth inhibition) at 200 ppm [2] | percent control (mortality, anti-feedant effect or growth inhibition) at 200 ppm [3] | percent effect (mortality or growth inhibition) at 200 ppm [4] | mortality at 200 ppm [6]

CCn1c(C(F)(F)F)cc2nc(-c3nc(-c4cc(C(F)(F)F)cc(C(F)(F)F)c4)ccc3S(=O)(=O)CC)n(C)c2c1=O [Compound P36]
≥ 80%: percent effect (mortality or growth inhibition) at 200 ppm [2] | percent control (mortality, anti-feedant effect or growth inhibition) at 200 ppm [3] | percent effect (mortality or growth inhibition) at 200 ppm [4]

CCn1c(C(F)(F)F)cc2nc(-c3nc(-c4cc(F)c(F)c(F)c4)ccc3S(=O)(=O)CC)n(C)c2c1=O [Compound P35]
≥ 80%: percent effect (mortality or growth inhibition) at 200 ppm [1] | percent effect (mortality or growth inhibition) at 200 ppm [2] | percent control (mortality, anti-feedant effect or growth inhibition) at 200 ppm [3] | percent effect (mortality or growth inhibition) at 200 ppm [4]

CCn1c(C(F)(F)F)cc2nc(-c3nc(-c4ccc(OC)c(F)c4)ccc3S(=O)(=O)CC)n(C)c2c1=O [Compound P23]
≥ 80%: percent effect (mortality or growth inhibition) at 200 ppm [1] | percent effect (mortality or growth inhibition) at 200 ppm [2] | percent control (mortality, anti-feedant effect or growth inhibition) at 200 ppm [3] | percent effect (mortality or growth inhibition) at 200 ppm [4] | mortality at 200 ppm [6]

CCn1c(C(F)(F)F)cc2nc(-c3nc(-c4ccsc4)ccc3S(=O)(=O)CC)n(C)c2c1=O [Compound P27]
≥ 80%: percent control (mortality, anti-feedant effect or growth inhibition) at 200 ppm [3]

CCn1c(C(F)(F)F)cc2nc(-c3nc(-c4ccc(Cl)cc4Cl)ccc3S(=O)(=O)CC)n(C)c2c1=O [Compound P32]
≥ 80%: percent effect (mortality or growth inhibition) at 200 ppm [2] | percent control (mortality, anti-feedant effect or growth inhibition) at 200 ppm [3] | percent effect (mortality or growth inhibition) at 200 ppm [4]

CCn1c(C(F)(F)F)cc2nc(-c3nc(-c4ccc(F)c(F)c4)ccc3S(=O)(=O)CC)n(C)c2c1=O [Compound P34]
≥ 80%: percent effect (mortality or growth inhibition) at 200 ppm [2] | percent control (mortality, anti-feedant effect or growth inhibition) at 200 ppm [3] | percent effect (mortality or growth inhibition) at 200 ppm [4]

CCS(=O)(=O)c1ccc(-n2cc(C(F)(F)F)cn2)nc1-c1nc2cc(C(F)(F)F)n(C)c(=O)c2n1C [Compound P9]
≥ 80%: percent effect (mortality or growth inhibition) at 200 ppm [1] | percent effect (mortality or growth inhibition) at 200 ppm [2] | percent control (mortality, anti-feedant effect or growth inhibition) at 200 ppm [3] | percent effect (mortality or growth inhibition) at 200 ppm [4]

CCn1c(C(F)(F)F)cc2nc(-c3nc(-c4cccc(Cl)c4)ccc3S(=O)(=O)CC)n(C)c2c1=O [Compound P17]
≥ 80%: percent effect (mortality or growth inhibition) at 200 ppm [1] | percent effect (mortality or growth inhibition) at 200 ppm [2] | percent control (mortality, anti-feedant effect or growth inhibition) at 200 ppm [3] | percent effect (mortality or growth inhibition) at 200 ppm [4] | mortality at 200 ppm [6]

CCn1c(C(F)(F)F)cc2nc(-c3nc(-c4ccc(Cl)c(Cl)c4)ccc3S(=O)(=O)CC)n(C)c2c1=O [Compound P10]
≥ 80%: percent effect (mortality or growth inhibition) at 200 ppm [2] | percent control (mortality, anti-feedant effect or growth inhibition) at 200 ppm [3] | percent effect (mortality or growth inhibition) at 200 ppm [4]

CCS(=O)(=O)c1ccc(-n2cc(Cl)cn2)nc1-c1nc2cc(C(F)(F)F)n(C)c(=O)c2n1C [Compound P7, 2-[6-(4-chloropyrazol-1-yl)-3-ethylsulfonyl-2-pyridyl]-3,5-dimethyl-6-(trifluoromethyl)imidazo[4,5-c]pyridin-4-one]
≥ 80%: percent control (mortality, anti-feedant effect or growth inhibition) at 200 ppm [3]

CCn1c(C(F)(F)F)cc2nc(-c3nc(-c4ccc(F)cc4)ccc3S(=O)(=O)CC)n(C)c2c1=O [Compound P26]
≥ 80%: percent effect (mortality or growth inhibition) at 200 ppm [2] | percent control (mortality, anti-feedant effect or growth inhibition) at 200 ppm [3]

C/C=C/c1ccc(S(=O)(=O)CC)c(-c2nc3cc(C(F)(F)F)n(CC)c(=O)c3n2C)n1 [Compound P25]
≥ 80%: percent control (mortality, anti-feedant effect or growth inhibition) at 200 ppm [3] | percent effect (mortality or growth inhibition) at 200 ppm [4] | mortality at 200 ppm [6]

CCn1c(C(F)(F)F)cc2nc(-c3nc(-c4cc(F)cc(Cl)c4)ccc3S(=O)(=O)CC)n(C)c2c1=O [Compound P19]
≥ 80%: percent effect (mortality or growth inhibition) at 200 ppm [2] | percent control (mortality, anti-feedant effect or growth inhibition) at 200 ppm [3] | percent effect (mortality or growth inhibition) at 200 ppm [4]

CCn1c(C(F)(F)F)cc2nc(-c3nc(-c4ccc(C(F)(F)F)cc4F)ccc3S(=O)(=O)CC)n(C)c2c1=O [Compound P33]
≥ 80%: percent effect (mortality or growth inhibition) at 200 ppm [2] | percent control (mortality, anti-feedant effect or growth inhibition) at 200 ppm [3] | percent effect (mortality or growth inhibition) at 200 ppm [4]
